Assays:
[1] = tested on: arrhythmia induced by an intravenous administration of calcium chloride; assay: Antiarrhythmic activity on a model of arrhythmia induced by intravenous calcium chloride (antagonism to calcium) in mice; type: in vivo; conditions: white mice, 20-40 minutes before
Summary of the method: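 Urethane-anaesthetised (1,200 mg/kg i.p.) white mice of both sexes, 18-25 g, with lead II ECG; 2% CaCl2 infused into the tail vein at 0.01 ml per 2 sec. Doses of CaCl2 producing arrhythmia and heart arrest were determined. Test compounds were given i.p. 20-40 min before infusion.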

in vivo = conditions: mouse, in vivo, ip
Summary of the method: (§1)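 Acute toxicity in white mice of 20-25 g, with compounds given intraperitoneally as aqueous solutions or Twin-80 suspensions. Animals observed for 10 days.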

white mice = assay: in vivo; conditions: mouse, in vivo, ip, 14400 min
Summary of the method: as §1

| SMILES | Dose of calcium chloride causing arrythmia in animals under experiment ([1]; intraperitoneal dose 5 mg/kg) | Dose of calcium chloride causing death in animals under experiment ([1]; intraperitoneal dose 5 mg/kg) | Dose of calcium chloride causing arrythmia in animals under experiment ([1]; intraperitoneal dose 15 mg/kg) | Dose of calcium chloride causing death in animals under experiment ([1]; intraperitoneal dose 15 mg/kg) | LD50 at 240 h (in vivo) [mg/kg] | Relative toxisity to quinidine (white mice) |
| --- | --- | --- | --- | --- | --- | --- |
| CCCCCC(=O)N(CCC(=O)OCC)N(C)C [I-43, 3-(2,2-dimethyl-1-hexanoylhydrazino)ethylpropionate] | 94,0 mg/kg | 105,0 mg/kg | 108,5 mg/kg | 120,3 mg/kg | 1460 | 9,3 |
| CCOC(=O)CCN(C(=O)c1ccccc1)N(C)C [I-44, 3-(2,2-dimethyl-1-benzoylhydrazino)ethylpropionate] | 101,0 mg/kg | 120,0 mg/kg | 98,5 mg/kg | 126,0 mg/kg | 1650 | 10,5 |
| CCOC(=O)CCN(C(=O)c1ccccc1F)N(C)C [I-45, 3-/2,2-dimethyl-1-(2'-fluorobenzoyl)-hydrazino/ethylpropionate] | 95,0 mg/kg | 112,5 mg/kg | 102,8 mg/kg | 125,0 mg/kg | 1480 | 9,4 |
| CCOC(=O)CCN(C(=O)c1ccc(Br)cc1)N(C)C [I-46, 3-/2,2-dimethyl-1-(4'-bromobenzoyl)hydrazino/ethylpropionate] | 98,0 mg/kg | 105,0 mg/kg | 100,0 mg/kg | 118,3 mg/kg | 1500 | 9,6 |
| CC(=O)N(CCC(N)=O)N(C)C [I-47, 3-(2,2-dimethyl-1-acetylhydrazino)propionamide] | 103 mg/kg | 118 mg/kg | 108 mg/kg | 125 mg/kg | > 3000 | > 19,2 |
| CCCC(=O)N(CCC(N)=O)N(C)C [I-48, 3-(2,2-dimethyl-1-butyrylhydrazino)propionamide] | 88 mg/kg | 101,8 mg/kg | 95,3 mg/kg | 109 mg/kg | 1700 | 10,9 |
| CCCCCC(=O)N(CCC(N)=O)N(C)C [I-49, 3-(2,2-dimethyl-1-hexanoylhydrazino)propionamide] | 101,3 mg/kg | 120,5 mg/kg | 108,6 mg/kg | 136,8 mg/kg | 960 | 6,1 |
